Reference: patent US6555322B1, “α2-macroglobulin receptor as a receptor for CTGF” (FibroGen, Inc., priority 1999, dated 2003)
One block for each molecule: values may come before it.

Tests used:
MG63 cells [1] = assay: Internalization and degradation of 125I-rhCTGF during binding, with additives; format: cell-based, human; conditions: for degraded/internalized 125I-CTGF with additive: both cultures (control and TGF-β treated)
Method: Another experiment was performed in which the internalization and degradation of CTGF was followed during the time course of binding to the cells. Various additives were included in the binding medium to examine the effect(s) and specificity of CTGF binding and internalization through LRP.
MG63 cells were plated and treated with TGF-β for 24 or 48 hours as in the previous experiment.

LRP [2] = target: T1, LRP (Mus musculus, UniProt Q91ZX7); assay: RAP-GST competition of CTGF binding on BMS-2 cells; parameters: species or system murine
T1 construct: endogenous in cells; host or cells: BMS2 (BMS-2) murine bone marrow stromal cells
Method: In a further study, receptor associated protein (RAP), a known inhibitor of ligand binding to LRP, was prepared. Plasmid DNA containing the human RAP cDNA sequence was obtained (ATCC as the I.M.A.G.E. Consortium Clone ID 511113, Lennon et al., 1996, Genomics, 33:151-152). The RAP sequence was sub-cloned into the pGEX4T-1 vector (Pharmacia) for the synthesis of a RAP-GST (glutathione S-transferase) fusion protein in E. coli. The fusion protein was purified over glutathione-Sepharose as described (Warshawsky et al., 1993, J. Biol. Chem., 268:22046-22054), and tested as a competitor of CTGF binding.

MG63 cells [3] = assay: CTGF production and accumulation in medium and cell layer (Western blot, densitometry); format: cell-based, human; conditions: RAP 10 nM
Method: To determine whether LRP was involved in the mediation of a CTGF signaling event, experiments were conducted to study the effect of anti-LRP antibodies on CTGF production and accumulation. MG63 cells were plated at 2.5×10^4 cells/cm^2 in 24 well plates in MEM with 10% FBS. The following day, the medium was changed to MEM with 0.5% FBS. Additionally, half of the wells were supplemented with 20 ng/ml TGF-β2. Some of the cells also received either anti-LRP antibodies (American Diagnostic) (3 ug/ml 3402 and 1 ug/ml 3501) or RAP (10 nM). At 15, 23, and 47 hours after exposure to these additives, medium and cell layers were harvested.
The harvested media was then incubated with heparin-SEPHAROSE for 4 hours. The beads were washed twice with RIPA buffer and the bound fraction was eluted with SDS-PAGE sample buffer. The cell layer was washed twice with PBS, then extracted for 15 min at 4° C. with RIPA buffer. The cell layer was collected by scraping, and centrifuged to remove the insoluble material. The soluble fraction was used for SDS-PAGE analysis. Both medium and cell layer samples were run non-reduced on 12% SDS-PAGE, then blotted to nitrocellulose. The nitrocellulose membranes were incubated with a rabbit polyclonal antibody made against rhCTGF (using procedures well known in the art), the data of which is shown in FIGS. 22A and 22B.

[4] = target: T2, high Mr CTGF binding protein on BMS-2 cells (Mus musculus, UniProt Q91ZX7); assay: Binding analysis of 125I-CTGF competition with LRP ligands on BMS-2 cells; parameters: species or system murine; conditions: 0.1 nM 125I-CTGF
T2 construct: endogenous in cells; host or cells: BMS2 (BMS-2) murine bone marrow stromal cells
Method: BMS-2 cells were incubated with 0.1 nM ^125I-CTGF in the presence of unlabeled CTGF, recombinant human apoE, low density lipoprotein purified from human plasma (LDL), or lipoprotein lipase purified from bovine milk (LpL).

LRP [5] = target: T1, LRP; assay: Competitive binding and cross-linking of LRP ligands with 125I-CTGF on BMS-2 cells; parameters: species or system murine; conditions: 50 pM 125I-CTGF; CTGF 21.5 nM, BP5 201-218 50 μg/ml, LF 25 μg/ml, apo E 20 μg/ml, LpL 20 μg/ml
Method: To examine whether ligands known to bind to LRP inhibit CTGF binding, BMS-2 cells were labeled with 50 pM ^125I-CTGF in the presence or absence of unlabeled ligand (CTGF: 21.5 nM; BP5^201-218: 50 μg/ml or […] (Campbell and Andress, 1997, Am. J. Physiol., 273:E1005-13); lactoferrin (LF): 25 μg/ml or 250 nM; apo E: 20 μg/ml or 574 nM; lipoprotein lipase (LpL): 20 μg/ml or 400 nM). The cells were cross-linked and the receptor complexes were solubilized, processed on SDS-PAGE and visualized by autoradiography.

MG63 cells [6] = assay: Internalization and degradation kinetics of 125I-CTGF with heparin or lactoferrin; format: cell-based, human; conditions: 3 μg/ml heparin or lactoferrin
Method: Experiments were performed in which the internalization and degradation kinetics of CTGF were followed in the presence or absence of a known LRP ligand, lactoferrin. Kinetics were followed in the presence or absence of 3 μg/ml heparin or lactoferrin. ^125I-CTGF was bound to MG63 cells at 4° C. and free CTGF was removed by washing the cells. Fresh medium was placed on the cells, and the cells were transferred to 37° C. At each time point, the medium was removed and TCA precipitated. Degraded ^125I-CTGF was quantified by measuring the cpm in the non-precipitable fraction (see FIG. 17). In parallel experiments, ^125I-CTGF was bound to MG63 cells at 4° C. and free CTGF was removed by washing the cells. Fresh medium was placed on the cells, and they were transferred to 37° C. At each time point, the cell layer was removed by extensive trypsinization at 4° C. The cells were centrifuged and the cpm associated with the pellet, the internalized fraction, was determined (see FIG. 18).

T1 sequence (Q91ZX7 20-4545): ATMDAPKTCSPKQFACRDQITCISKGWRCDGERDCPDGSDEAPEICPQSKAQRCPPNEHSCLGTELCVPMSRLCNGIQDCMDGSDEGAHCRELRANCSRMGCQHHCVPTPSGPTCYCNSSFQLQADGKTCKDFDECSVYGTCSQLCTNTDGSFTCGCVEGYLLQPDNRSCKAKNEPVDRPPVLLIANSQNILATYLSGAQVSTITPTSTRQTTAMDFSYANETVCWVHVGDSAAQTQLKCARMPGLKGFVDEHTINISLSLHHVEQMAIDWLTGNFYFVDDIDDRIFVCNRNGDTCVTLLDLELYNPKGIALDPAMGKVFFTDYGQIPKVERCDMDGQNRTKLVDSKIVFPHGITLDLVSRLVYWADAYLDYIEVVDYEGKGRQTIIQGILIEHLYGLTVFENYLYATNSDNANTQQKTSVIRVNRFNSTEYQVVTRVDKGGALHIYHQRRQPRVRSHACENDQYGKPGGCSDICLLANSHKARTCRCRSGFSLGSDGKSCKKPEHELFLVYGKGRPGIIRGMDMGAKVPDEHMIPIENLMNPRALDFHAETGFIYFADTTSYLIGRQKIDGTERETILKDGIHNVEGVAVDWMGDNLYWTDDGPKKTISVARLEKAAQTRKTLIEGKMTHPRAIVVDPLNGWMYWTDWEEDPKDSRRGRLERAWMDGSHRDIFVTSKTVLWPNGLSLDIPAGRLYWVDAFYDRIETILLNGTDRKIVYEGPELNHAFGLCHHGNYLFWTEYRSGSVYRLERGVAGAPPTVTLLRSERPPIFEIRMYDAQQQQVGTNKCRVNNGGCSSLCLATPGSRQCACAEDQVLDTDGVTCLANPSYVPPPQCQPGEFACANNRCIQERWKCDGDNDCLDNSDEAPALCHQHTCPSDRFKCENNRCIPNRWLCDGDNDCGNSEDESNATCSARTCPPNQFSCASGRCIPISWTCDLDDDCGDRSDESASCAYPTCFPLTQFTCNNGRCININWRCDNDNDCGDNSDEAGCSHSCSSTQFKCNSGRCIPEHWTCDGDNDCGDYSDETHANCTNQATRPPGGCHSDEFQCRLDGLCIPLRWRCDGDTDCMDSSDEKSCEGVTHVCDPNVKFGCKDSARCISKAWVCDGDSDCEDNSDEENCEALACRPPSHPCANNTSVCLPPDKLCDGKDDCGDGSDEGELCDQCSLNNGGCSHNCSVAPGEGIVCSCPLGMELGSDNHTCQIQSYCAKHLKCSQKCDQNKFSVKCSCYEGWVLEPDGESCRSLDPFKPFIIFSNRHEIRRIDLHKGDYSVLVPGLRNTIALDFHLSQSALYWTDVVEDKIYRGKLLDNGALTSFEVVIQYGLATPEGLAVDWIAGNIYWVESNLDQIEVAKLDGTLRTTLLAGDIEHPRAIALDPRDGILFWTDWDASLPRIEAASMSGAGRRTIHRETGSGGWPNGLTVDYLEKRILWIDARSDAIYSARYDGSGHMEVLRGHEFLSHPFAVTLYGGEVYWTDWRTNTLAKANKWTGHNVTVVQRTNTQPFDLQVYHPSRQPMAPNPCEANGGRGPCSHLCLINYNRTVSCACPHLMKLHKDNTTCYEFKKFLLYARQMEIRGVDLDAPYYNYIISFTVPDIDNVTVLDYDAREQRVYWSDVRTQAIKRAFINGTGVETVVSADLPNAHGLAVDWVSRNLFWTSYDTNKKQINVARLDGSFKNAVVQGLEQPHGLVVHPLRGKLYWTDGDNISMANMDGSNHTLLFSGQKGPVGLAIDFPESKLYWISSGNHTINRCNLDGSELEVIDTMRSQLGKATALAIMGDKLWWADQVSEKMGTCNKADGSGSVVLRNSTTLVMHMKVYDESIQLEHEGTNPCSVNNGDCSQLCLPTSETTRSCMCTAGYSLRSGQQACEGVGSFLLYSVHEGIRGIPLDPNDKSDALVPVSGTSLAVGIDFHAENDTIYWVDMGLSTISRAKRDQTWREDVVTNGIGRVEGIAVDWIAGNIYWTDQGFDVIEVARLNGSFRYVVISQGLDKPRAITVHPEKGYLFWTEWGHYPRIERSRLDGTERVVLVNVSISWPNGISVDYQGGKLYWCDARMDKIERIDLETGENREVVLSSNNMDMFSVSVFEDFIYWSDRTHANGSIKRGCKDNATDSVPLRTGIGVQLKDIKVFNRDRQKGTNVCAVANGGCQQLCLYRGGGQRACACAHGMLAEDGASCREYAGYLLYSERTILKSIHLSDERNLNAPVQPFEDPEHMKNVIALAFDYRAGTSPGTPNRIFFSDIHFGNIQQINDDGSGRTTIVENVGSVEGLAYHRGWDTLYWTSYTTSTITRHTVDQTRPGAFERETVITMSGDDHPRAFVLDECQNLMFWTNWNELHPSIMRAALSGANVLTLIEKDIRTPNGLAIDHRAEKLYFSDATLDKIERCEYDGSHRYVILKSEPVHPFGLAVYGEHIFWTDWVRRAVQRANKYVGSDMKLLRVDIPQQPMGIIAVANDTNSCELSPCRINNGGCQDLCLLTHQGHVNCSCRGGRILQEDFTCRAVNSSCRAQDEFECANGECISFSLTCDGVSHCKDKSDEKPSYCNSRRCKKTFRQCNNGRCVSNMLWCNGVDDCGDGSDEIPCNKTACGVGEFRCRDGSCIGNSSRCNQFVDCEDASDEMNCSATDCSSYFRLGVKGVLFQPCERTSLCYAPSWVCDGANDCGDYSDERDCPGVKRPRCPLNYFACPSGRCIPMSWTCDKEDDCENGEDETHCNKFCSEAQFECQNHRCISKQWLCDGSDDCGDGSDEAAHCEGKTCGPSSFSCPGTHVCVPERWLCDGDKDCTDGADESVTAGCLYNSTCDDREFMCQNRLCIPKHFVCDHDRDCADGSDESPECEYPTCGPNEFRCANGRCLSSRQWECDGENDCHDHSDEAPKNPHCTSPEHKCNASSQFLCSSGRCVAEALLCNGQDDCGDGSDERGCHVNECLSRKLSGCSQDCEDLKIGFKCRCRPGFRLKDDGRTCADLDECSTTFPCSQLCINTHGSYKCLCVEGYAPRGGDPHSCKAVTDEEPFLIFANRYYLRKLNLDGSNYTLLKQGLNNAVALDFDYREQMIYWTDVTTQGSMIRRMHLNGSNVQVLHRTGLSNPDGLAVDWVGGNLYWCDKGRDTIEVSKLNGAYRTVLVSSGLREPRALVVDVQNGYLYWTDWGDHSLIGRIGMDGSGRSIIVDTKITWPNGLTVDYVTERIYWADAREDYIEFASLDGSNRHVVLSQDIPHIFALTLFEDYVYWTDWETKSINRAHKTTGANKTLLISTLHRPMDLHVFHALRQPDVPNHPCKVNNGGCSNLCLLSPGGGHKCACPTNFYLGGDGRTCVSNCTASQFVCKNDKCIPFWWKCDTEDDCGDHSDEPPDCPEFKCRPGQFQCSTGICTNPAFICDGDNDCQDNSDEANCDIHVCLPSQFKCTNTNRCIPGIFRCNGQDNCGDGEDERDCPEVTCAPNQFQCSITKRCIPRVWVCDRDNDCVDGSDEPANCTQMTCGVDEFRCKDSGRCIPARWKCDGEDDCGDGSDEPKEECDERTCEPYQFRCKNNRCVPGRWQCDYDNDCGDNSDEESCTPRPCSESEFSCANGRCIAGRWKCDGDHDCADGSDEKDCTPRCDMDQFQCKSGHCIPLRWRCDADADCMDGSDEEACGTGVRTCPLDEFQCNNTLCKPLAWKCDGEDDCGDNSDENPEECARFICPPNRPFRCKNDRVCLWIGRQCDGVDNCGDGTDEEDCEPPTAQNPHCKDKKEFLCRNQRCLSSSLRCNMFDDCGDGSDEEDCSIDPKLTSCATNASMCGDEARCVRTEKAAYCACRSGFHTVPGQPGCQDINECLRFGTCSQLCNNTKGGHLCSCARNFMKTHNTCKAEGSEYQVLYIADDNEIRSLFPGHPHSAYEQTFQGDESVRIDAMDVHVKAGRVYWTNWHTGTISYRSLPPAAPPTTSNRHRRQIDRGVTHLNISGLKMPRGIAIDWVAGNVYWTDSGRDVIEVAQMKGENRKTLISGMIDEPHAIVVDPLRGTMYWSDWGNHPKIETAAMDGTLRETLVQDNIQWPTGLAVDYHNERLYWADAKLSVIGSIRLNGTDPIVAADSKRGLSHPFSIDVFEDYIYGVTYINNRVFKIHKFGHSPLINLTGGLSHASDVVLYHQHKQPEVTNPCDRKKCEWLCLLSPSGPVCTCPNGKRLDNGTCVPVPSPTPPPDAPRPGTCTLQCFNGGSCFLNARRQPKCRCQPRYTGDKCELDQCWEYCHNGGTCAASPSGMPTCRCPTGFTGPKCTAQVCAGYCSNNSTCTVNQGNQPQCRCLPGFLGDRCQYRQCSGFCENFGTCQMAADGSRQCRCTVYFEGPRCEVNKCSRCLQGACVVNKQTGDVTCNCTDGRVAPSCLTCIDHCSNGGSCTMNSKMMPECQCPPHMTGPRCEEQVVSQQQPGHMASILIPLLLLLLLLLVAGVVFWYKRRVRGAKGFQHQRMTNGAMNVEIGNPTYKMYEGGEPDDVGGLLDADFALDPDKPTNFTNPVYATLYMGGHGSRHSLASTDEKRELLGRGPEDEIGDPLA
T2 sequence (Q91ZX7 20-4545): as above

Molecule: CC(C)C[C@H](NC(=O)[C@@H](NC(=O)N[C@@H](Cc1ccccc1)C(=O)O)[C@@H]1CCN=C(N)N1)C(=O)N[C@H](C=O)Cc1ccccc1 [Chymostatin]
degraded/internalized 125I-CTGF with additive (MG63 cells [1]): no appreciable affect

Molecule: CCN(CC)CCCC(C)Nc1ccnc2cc(Cl)ccc12 (centres unmarked) [chloroquin, Chloroquin]
rhCTGF remaining internalized, TGF-β treated cultures (MG63 cells [1]; chloroquin treated samples, TGF-β treated cultures): ~400 fmol
rhCTGF remaining internalized, control cultures (MG63 cells [1]; chloroquin treated samples, control cultures): About 1000 fmoles
secretion of CTGF degradation products into the medium (MG63 cells [1]; in the presence of chloroquin): not secreted into the medium

Molecule: heparin [reference compound]
rate of degradation of CTGF (MG63 cells [6]): reduced the rate
rate of internalization of CTGF (MG63 cells [6]): reduced the rate

Continued, in another order:

competition for CTGF binding to LRP (LRP [2]): no competitive activity
Molecule: GST: GST protein by itself, control for RAP-GST

competition for CTGF binding to LRP (LRP [2]): able to compete
Molecule: RAP-GST: human receptor associated protein as glutathione S-transferase fusion protein made in E. coli; inhibitor of ligand binding to LRP
degraded/internalized 125I-CTGF with additive (MG63 cells [1]): to background levels
CTGF levels in cell layer, RAP treated samples (MG63 cells [3]): slightly increased levels
CTGF medium concentration at 15 and 23 hours (MG63 cells [3]): an increase
CTGF medium levels at 47 hours (MG63 cells [3]): returned to basal levels

competition with 125I-CTGF [4]: competed
competing the binding to the LRP receptor (LRP [5]): very effective in competing
Molecule: apolipoprotein E [apoE, reference compound]
